Source: the NIST ThermoML archive (doi:10.1016/j.jct.2016.03.016)

Test: mn = molality of the nth substance listed, in mol/kg
Conditions: 100 kPa, Liquid; for speed of sound: Frequency=3 MHz, Sing-around technique in a fixed-path interferometer; for mass density: Vibrating tube method

CC(C)Cc1ccc(C(C)C(=O)[O-])cc1.[Na+] (stereo not given) [sodium ibuprofen] + O
Conditions | mass density, 288.15 K [kg/m3] | mass density, 293.15 K [kg/m3] | mass density, 298.15 K [kg/m3] | mass density, 303.15 K [kg/m3] | mass density, 308.15 K [kg/m3] | speed of sound, 288.15 K [m/s] | speed of sound, 293.15 K [m/s] | speed of sound, 298.15 K [m/s] | speed of sound, 303.15 K [m/s] | speed of sound, 308.15 K [m/s]
m1 = 0.05 | 1003.2 | 1002.24 | 1001.03 | 999.585 | 997.921 | 1477.5 | 1492.8 | 1506 | 1517.7 | 1527.8
m1 = 0.15 | 1007.46 | 1006.39 | 1005.07 | 1003.52 | 1001.77 | 1496.9 | 1510.7 | 1522.9 | 1533.4 | 1542.4
m1 = 0.25 | 1010.79 | 1009.6 | 1008.17 | 1006.53 | 1004.69 | 1510.2 | 1522.3 | 1533.1 | 1542.4 | 1550.3
m1 = 0.35 | 1015.17 | 1013.83 | 1012.29 | 1010.55 | 1008.62 | 1518.1 | 1529.1 | 1538.9 | 1547.4 | 1554.5
